Drawing on patent publication EP4667464A1 (Cyrus Therapeutics Inc., priority 2023, dated 2024), this text covers IC50 for 15 molecules.

One experiment deals with T1, SOS1 (Homo sapiens, UniProt Q07889).
T1 construct: HIS-SOS1cat (160 nM; Cytoskeleton, US); His (N); purchased Cytoskeleton
T1 sequence (Q07889 564-1049 limits assumed): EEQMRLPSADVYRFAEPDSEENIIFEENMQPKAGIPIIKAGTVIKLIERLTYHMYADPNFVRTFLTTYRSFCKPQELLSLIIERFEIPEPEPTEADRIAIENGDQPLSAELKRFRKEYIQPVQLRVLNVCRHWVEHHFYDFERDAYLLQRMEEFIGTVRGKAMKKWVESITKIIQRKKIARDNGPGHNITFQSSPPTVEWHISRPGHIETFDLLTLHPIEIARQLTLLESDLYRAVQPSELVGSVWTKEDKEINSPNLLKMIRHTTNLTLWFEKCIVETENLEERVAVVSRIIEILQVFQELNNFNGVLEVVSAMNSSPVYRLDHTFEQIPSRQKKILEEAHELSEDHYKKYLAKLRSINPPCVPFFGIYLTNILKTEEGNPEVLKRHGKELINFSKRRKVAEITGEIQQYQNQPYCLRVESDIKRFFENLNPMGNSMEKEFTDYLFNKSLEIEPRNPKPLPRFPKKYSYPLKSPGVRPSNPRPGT
As to the kind of experiment: SOS-catalyzed nucleotide exchange assay (HTRF, SOS1-mediated GTP loading of KRAS G12D). The experiment is classed as biochemical. The note with it: GST-KRAS G12D, HIS-SOS1cat, compound 128 pM to 10 µM; read-out: SOS-catalyzed nucleotide exchange assay. Here is the method: SOS1 activity was measured by SOS1-mediated GTP loading quantification of KRAS^G12D. GTP loaded KRAS^G12D was detected by HTRF (Homogeneous Time Resolved Fluorescence) using anti-GST terbium (Cisbio, France) as a donor and a fluorescence GTP analogue (EDA-GTP-DY-647P1, [DY-647P1 labeled 2'/3'-O-(2-aminoethyl-carbamoyl)guanosine-5'-triphosphate (Jena bioscience, Germany)]) as an acceptor.
KRAS^G12D working solution was prepared by adding equal amounts of GST-KRAS^G12D (100 nM) and anti-GST-terbium (2 nM; Cisbio, France) to the assay buffer and culturing on ice for 10 minutes. […] Control solution was prepared by adding equal volumes of EDA-GTP-DY-647P1 and the assay buffer for normalization control to exclude GEF-independent GTP loading and background signals.
10 uL of the KRAS^G12D solution was added to each well and incubated for 30 minutes at room temperature while shaking. HTRF was measured using a Thermo Varioskan (excitation 334 nm, emission 665 nm). The IC50 of each inhibitor was analyzed using Graphad Prism.
In general terms: In TR-FRET formats the signal depends on donor and acceptor labels being close together.
Take `C[C@@H](O)c1cc(C(=O)N[C@H](C)c2cccc(C(F)(F)F)c2F)nn(-c2cncc(-c3cnnn3C)c2)c1=O` (single isomer, unassigned) [Example 9]: the IC50 was less than 50 nM. Same read-out and setting: as for `C[C@@H](NC(=O)c1ccc(=O)n(-c2cncc(-c3cnnn3C3COC3)c2)n1)c1cccc(C(F)(F)CO)c1F` [Example 1-70, (R)-N-(1-(3-(1,1-difluoro-2-hydroxyethyl)-2-fluorophenyl)ethyl)-1-(5-(1-(oxetan-3-yl)-1H-1,2,3-triazol-5-yl)pyridin-3-yl)-6-oxo-1,6-dihydropyridazine-3-carboxamide], the figure is less than 50 nM; as for `[2H]C([2H])(O)C(F)(F)c1cccc([C@@H](C)NC(=O)c2ccc(=O)n(-c3cncc(-c4cnnn4C4COC4)c3)n2)c1F` [Example 1-71, (R)-N-(1-(3-(1,1-difluoro-2-hydroxyethyl-2,2-dideuterio)-2-fluorophenyl)ethyl)-1-(5-(1-(oxetan-3-yl)-1H-1,2,3-triazol-5-yl)pyridin-3-yl)-6-oxo-1,6-dihydropyridazine-3-carboxamide], less than 50 nM; as for `C[C@@H](NC(=O)c1cc(C(F)(F)F)c(=O)n(-c2cncc(-c3cnnn3C)c2)n1)c1cccc(C(F)(F)CO)c1F` [Example 1-72, (R)-N-(1-(3-(1,1-difluoro-2-hydroxyethyl)-2-fluorophenyl)ethyl)-1-(5-(1-methyl-1H-1,2,3-triazol-5-yl)pyridin-3-yl)-6-oxo-5-(trifluoromethyl)-1,6-dihydropyridazine-3-carboxamide], less than 50 nM.

A further experiment addresses T2, KRAS G12C::SOS1 (Homo sapiens, UniProt Q07889).
T2 construct: purchased CISBIO 64KRASG12PEH
T2 sequence (Q07889 1-1333): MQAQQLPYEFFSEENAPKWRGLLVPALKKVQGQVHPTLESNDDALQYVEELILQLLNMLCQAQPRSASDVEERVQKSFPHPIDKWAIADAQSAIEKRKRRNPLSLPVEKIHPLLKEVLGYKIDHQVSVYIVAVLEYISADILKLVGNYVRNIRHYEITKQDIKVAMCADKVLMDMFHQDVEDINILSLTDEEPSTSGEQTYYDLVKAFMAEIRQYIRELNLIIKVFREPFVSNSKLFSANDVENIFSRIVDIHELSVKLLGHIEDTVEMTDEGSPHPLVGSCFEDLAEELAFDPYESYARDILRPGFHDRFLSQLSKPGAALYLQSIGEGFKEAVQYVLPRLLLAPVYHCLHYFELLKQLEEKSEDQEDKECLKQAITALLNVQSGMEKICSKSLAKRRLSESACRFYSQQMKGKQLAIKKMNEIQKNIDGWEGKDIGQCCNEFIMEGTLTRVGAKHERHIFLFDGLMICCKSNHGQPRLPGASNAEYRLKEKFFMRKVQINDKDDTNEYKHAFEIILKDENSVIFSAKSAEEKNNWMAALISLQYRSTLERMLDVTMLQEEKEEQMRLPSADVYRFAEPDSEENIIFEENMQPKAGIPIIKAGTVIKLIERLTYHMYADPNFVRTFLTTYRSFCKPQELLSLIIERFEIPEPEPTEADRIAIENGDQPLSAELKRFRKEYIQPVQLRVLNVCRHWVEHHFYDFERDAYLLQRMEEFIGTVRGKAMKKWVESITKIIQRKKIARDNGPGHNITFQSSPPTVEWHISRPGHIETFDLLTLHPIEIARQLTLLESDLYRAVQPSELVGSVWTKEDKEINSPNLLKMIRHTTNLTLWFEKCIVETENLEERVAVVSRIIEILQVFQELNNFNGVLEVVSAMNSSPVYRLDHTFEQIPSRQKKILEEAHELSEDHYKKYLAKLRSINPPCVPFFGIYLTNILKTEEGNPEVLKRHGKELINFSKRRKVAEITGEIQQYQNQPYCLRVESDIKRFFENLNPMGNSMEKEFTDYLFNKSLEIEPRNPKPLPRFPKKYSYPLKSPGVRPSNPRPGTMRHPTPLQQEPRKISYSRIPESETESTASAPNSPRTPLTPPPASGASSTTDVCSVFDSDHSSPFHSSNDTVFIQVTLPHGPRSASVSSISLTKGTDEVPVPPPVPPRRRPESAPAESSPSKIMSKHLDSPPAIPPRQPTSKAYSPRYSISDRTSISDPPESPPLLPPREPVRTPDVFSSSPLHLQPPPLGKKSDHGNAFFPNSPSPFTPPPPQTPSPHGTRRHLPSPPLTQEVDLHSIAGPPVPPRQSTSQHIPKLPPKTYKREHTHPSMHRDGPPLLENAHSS
As to the kind of experiment: KRAS G12C::SOS1 protein-protein interaction (PPI) inhibition assay (HTRF).
Details: not given
The experiment is classed as binding. On the procedure: Protein-protein interaction between SOS1 and KRAS^G12c was detected using KRAS G12C/SOS1 binding kit from CISBIO (64KRASG12PEH, CISBIO, FRANCE) according to the manufacturer's assay method. Briefly, the maximum concentration of an inhibitor sample was set to be 3 µM, and the inhibitor sample was diluted 7 times by 1/3, and samples having a total of 8 concentrations were prepared. In HTRF (Homogeneous Time-Resolved Fluorescence) exclusive 96-well low-volume white plate (66PL96005, CISBIO, FRANCE), 2 µL of an inhibitor sample prepared for each concentration, 5 µL of a mixed solution of Tag1 labeled KRAS^G12c protein and GTP diluted with the dilution solution provided by the manufacturer, and 5 µL of Tag2 labeled SOS1 protein were mixed, and added with 8 µL of a diluted solution where anti-Tag1 KRAS^G12C XL665 (HTRF acceptor) labeled antibody and anti-Tag2 SOS1 Terbium cryptate (HTRF donor) labeled antibody were mixed in an equal ratio and cultured at room temperature for 2 h.
Take `COCC1(c2cccc([C@@H](C)NC(=O)c3ccc(=O)n(-c4cncc(-c5cnnn5C)c4)n3)c2F)CC1` [Example 18, N-[(1R)-1-[2-fluoro-3-[1-(methoxymethyl)cyclopropyl]phenyl]ethyl]-1-[5-(3-methyltriazol-4-yl)-3-pyridyl]-6-oxo-pyridazine-3-carboxamide]: the IC50 was greater than 150 nM.

Still in this experiment, the particulars now being: 8 concentrations from 3 µM, three replicates; read-out: KRAS G12C::SOS1 PPI.
Take `C[C@@H](O)c1cc(C(=O)N[C@H](C)c2cccc(C(F)(F)F)c2F)nn(-c2cncc(-c3cnnn3C)c2)c1=O` (single isomer, unassigned) [Example 9]: the IC50 is 50 to 150 nM. Turning to `C[C@@H](NC(=O)c1ccc(=O)n(-c2cncc(-c3cnnn3C)c2)n1)c1cccc(C2(CF)CC2)c1F` (single isomer, unassigned) [Example 16], the IC50 is greater than 150 nM. Regarding `C[C@@H](NC(=O)c1ccc(=O)n(-c2cncc(-c3cnnn3C)c2)n1)c1cccc(C2=CCC2)c1F` (single isomer, unassigned) [Example 17], the IC50 was greater than 150 nM. On the same count and under the same terms, as for `Cc1ncc(-n2nc(C(=O)N[C@H](C)c3cccc(C(F)(F)CO)c3C)ccc2=O)cc1-c1cnnn1C` [Example 1-28, N-[(1R)-1-[3-(1,1-difluoro-2-hydroxy-ethyl)-2-methyl-phenyl]ethyl]-1-[6-methyl-5-(3-methyltriazol-4-yl)-3-pyridyl]-6-oxo-pyridazine-3-carboxamide], the figure is greater than 150 nM; as for `C[C@@H](NC(=O)c1ccc(=O)n(-c2cncc(-c3cnnn3C)c2)n1)c1cccc(C(F)(F)F)c1Cl` [Example 1-31, N-[(1R)-1-[2-chloro-3-(trifluoromethyl)phenyl]ethyl]-1-[5-(3-methyltriazol-4-yl)-3-pyridyl]-6-oxo-pyridazine-3-carboxamide], 50 to 150 nM. As to `C[C@@H](NC(=O)c1cc(N[C@H](C)c2cccc(C(F)(F)F)c2F)c(=O)n(-c2cncc(-c3cnnn3C)c2)n1)c1cccc(C(F)(F)F)c1F` [Example 1-44, N-{(R)-1-[2-fluoro-3-(trifluoromethyl)phenyl]ethyl}-5-{(R)-1-[2-fluoro-3-(trifluoromethyl)phenyl]ethylamino}-1-[5-(1-methyl-1H-1,2,3-triazol-5-yl)-3-pyridyl]-6-oxo-1,6-dihydropyridazine-3-carboxamide], the IC50 is greater than 150 nM.

Turning to `CNc1ncc(-n2nc(C(=O)N[C@H](C)c3cccc(C(F)(F)F)c3F)ccc2=O)cc1-c1cnnn1C` [Example 1-45, N-{(R)-1-[2-fluoro-3-(trifluoromethyl)phenyl]ethyl}-1-[6-(methylamino)-5-(1-methyl-1H-1,2,3-triazol-5-yl)-3-pyridyl]-6-oxo-1,6-dihydropyridazine-3-carboxamide], the IC50 was 50 to 150 nM.

For `Cc1ncc(-n2nc(C(=O)N[C@H](C)c3cccc(C(F)F)c3F)ccc2=O)cc1-c1cnnn1C` [Example 1-47, N-{(R)-1-[3-(difluoromethyl)-2-fluorophenyl]ethyl}-1-[6-methyl-5-(1-methyl-1H-1,2,3-triazol-5-yl)-3-pyridyl]-6-oxo-1,6-dihydropyridazine-3-carboxamide], the IC50 is greater than 150 nM. Same read-out and setting: as for `COc1ncc(-n2nc(C(=O)N[C@H](C)c3cccc(C(F)(F)F)c3F)ccc2=O)cc1-c1cnnn1C` [Example 6-5, N-{(R)-1-[2-fluoro-3-(trifluoromethyl)phenyl]ethyl}-1-[6-methoxy-5-(1-methyl-1H-1,2,3-triazol-5-yl)-3-pyridyl]-6-oxo-1,6-dihydropyridazine-3-carboxamide], the figure is 50 to 150 nM; as for `C[C@@H](NC(=O)c1ccc(=O)n(-c2cnc(N(C)C)c(-c3cnnn3C)c2)n1)c1cccc(C(F)(F)F)c1F` [Example 6-6, N-{(R)-1-[2-fluoro-3-(trifluoromethyl)phenyl]ethyl}-1-[6-(dimethylamino)-5-(1-methyl-1H-1,2,3-triazol-5-yl)-3-pyridyl]-6-oxo-1,6-dihydropyridazine-3-carboxamide], 50 to 150 nM.

Still in this experiment, the particulars now being: read-out: KRAS G12C::SOS1 PPI; 8 concentrations from 3 µM, three replicates.
Regarding `C[C@@H](NC(=O)c1ccc(=O)n(-c2cncc(-c3cnnn3C)c2)n1)c1cccc(C2(CO)CC2)c1F` [Example 1-32, N-[(1R)-1-[2-fluoro-3-[1-(hydroxymethyl)cyclopropyl]phenyl]ethyl]-1-[5-(3-methyltriazol-4-yl)-3-pyridyl]-6-oxo-pyridazine-3-carboxamide], the IC50 is greater than 150 nM.
